Experimental findings from patent US7355004B2, “Protein lipase inhibitor for flour and dough” (Danisco A/S, priority 2002, dated 2008) are described below.

In experiment [1] the test system is commercial lipase #1646. Put plainly: p-Nitrophenol-acetate assay, determination of Km for another commercial lipase (#1646). As to conditions: pH 6.5, 50 mM phosphate buffer, 30° C., 405 nm; substrate 0.1 to 0.75 mg/ml; fit to non-competitive kinetics not accepted. The format is biochemical. The procedure:
(§1) Lipase activity was determined colorimetrically using p-nitrophenyl acetate as a substrate. In a microtiter plate was added 10 μl of sample or blank then 250 μl of substrate was added (0.5 mg p-nitrophenyl acetate/ml of 50 mM phosphate buffer, pH 6.5). The microtiterplate was incubated for 5 min. at 30° C. and the absorbance at 405 nm was then read in a microplate reader.
Kinetic data were fitted to v=VmaxS/(Km+S) where Vmax is maximum velocity, S is substrate concentration, and Km is the concentration giving half maximal rate (Michaelis constant), using the EZ-FIT curve-fitting microcomputer program [Perrella, (1988) EZ-FIT: A practical curve-fitting microcomputer program for the analysis of enzyme kinetic data on IBM-PC compatible computers. Anal. Biochem. 174: 437-447]. To determine Ki the data were fitted to the formulas for non-competitive, competitive, un-competitive and the model showing the best fit (non-competitive) were used to determine Ki. The program uses the Nelder-Mead simplex optimization of initial guesses followed by Marquardt nonlinear regression algorithm for least squares optimization. Run's statistic is used to determine if the fitted curve goes through the data points or whether a systematic departure from the curve exists. The fitted parameter values and standard error are tested for significance by the Student t test.

The subject of experiment [2] is purified Lipase 3 from Aspergillus niger. Put plainly: p-Nitrophenol-acetate assay, determination of Km for purified Lipase 3. The format is biochemical. The procedure:
as §1
A 60 ml sample of Grindlipase (Danisco A/S) a ferment of Aspergillus niger, pH 5.5 was first filtered through GF/B filter and then through 0.45 μm filter. The filtered sample was then desalted on a Superdex G25 SP column (430 ml, 22×5 cm) equilibrated in 20 mM triethanolamin, pH 7.3. Flow 5 ml/min. The total volume after desalting was 150 ml.
The desalted sample was applied to a Source Q30 anion exchange column (100 ml, 5×5 cm) equilibrated in 20 mM triethanolamine, pH 7.3. The column was washed with equilibration buffer until a stable baseline was obtained. Lipase activity was then eluted with a 420 ml linear gradient from 0 to 0.35 M NaCl in equilibration buffer, flow […]. Fractions of 10 ml were collected. […]
To the pool from anion exchange was added ammonium sulfate to 1 M and the sample was applied to a Source Phenyl HIC column (20 ml, 10 x 2 cm) equilibrated in 20 mM sodium-acetate (pH 5.5), 1M (NH4)2SO4. […] Fractions 33-41 were analyzed by SDS-PAGE and fraction 40 and 41 contained pure lipase. […]

Consider `CC(=O)Oc1ccc([N+](=O)[O-])cc1` [p-nitrophenyl acetate], for which the “Km for p-nitrophenyl acetate” value in experiment [1] is 2.0 ± 0.6 mg/mL; in experiment [2] (pH 6.5, 50 mM phosphate buffer, 30° C., 405 nm, four levels of lipase inhibitor, fit to non-competitive model), 0.67 ± 0.04 mg/mL. Further, in experiment [2] (under the conditions in the assay), the “Km for lipase with respect to p-nitrophenyl acetate (in words)” value is given as “higher than the maximum solubility for p-nitrophenyl acetate”.
